Test results as given in patent EP4810509A1, “INSECT NEUROPEPTIDES 7” (Solasta Bio Limited, priority 2022, dated 2024).

Tests used:
Format in all cases: in vivo
[1] = test system: Amrasca biguttula (leaf hopper); assay: Field trials, naturally infested plants; details: unformulated; over time; acting comparably to commercial insecticides (Figure 14)
Procedure: (§1) A) and 16 days after second application (App.
(§2) Field trials for peptide SB-P-66, unformulated, against various insects were conducted by third-party organisations PGRO and AgriScience.

Bumblebee = assay: Bee oral toxicity test (adapted from OECD Test No. 247: Bumblebee, Acute Oral Toxicity Test); details: % survival after 96 hours of application, compared with sucrose or vehicle and with Imidacloprid (Figure 9)
Procedure: Bee oral testing protocol was carried out adapted from OECD Test No. 247: Bumblebee, Acute Oral Toxicity Test. The toxicity of SB-P-66 was compared with a negative control of sucrose or vehicle, and with a current commercial insecticide Imidacloprid.

Myzus persicae aphids = assay: Leaf dip assay (based on IRAC susceptibility test method 019), mortality assessment; details: unformulated, mortality assessed at 72, 96 and 120 hours, compared to negative control vehicle and Spirotetramat (Figures 6-8)
Procedure: The assay was carried out based on IRAC susceptibility test method 019 (https://irac-online.org/methods/aphids-adultnymphs/).
Fill a small 4 cm wide 3 cm high dish with a 1% agar treatment solution of the active chemical or control (ensuring 1 cm gap between the agar and the lid) and leave to set. Dip a 2.5 cm leaf disc into 3 ml of treatment solution allowing the treatment to coat the leaf. Leave the disc to dry for 1 hour and place onto the set agar. Place insects (Myzus persicae aphids) onto each of the leaf discs. Each unit is sealed with a close-fitting, ventilated lid. Place the agar dishes in a small plastic tray lined with moist tissue paper and ensure the water trays in the bottom of the incubator are filled with clean water and place within the incubator. An assessment of mortality is made at 72, 96 and 120 hours. Leaf dip assays were performed with SB-P-66, and compared to a negative control vehicle and a current commercial insecticide Spirotetramat. The activity of SB-P-66 is shown in Figures 6 and 7; SB-P-66 has good activity whilst being eco-friendly and targeted to specific pests unlike broad spectrum chemical insecticides such as Spirotetramat.

Myzus persicae = assay: Field trials; details: unformulated; acting comparably to commercial insecticides
Procedure: as §2

Aphis gossypii = assay: Field trials, naturally infested plants (AgriScience, cotton and melon); details: unformulated, acting comparably to commercial insecticides (Figures 11, 12)
Procedure: as §1, §2

Aphis fabae = assay: Field trials, naturally infested plants (PGRO, vining peas); details: unformulated, acting comparably to commercial insecticides (Figures 10, 13)
Procedure: as §1, §2

## H-PAFSSWG-NH2 [SB-P-66, [Hy]-PAFSSWG-[NH2]]
[1]
  efficacy in field trials against Amrasca biguttula: good efficacy
Bumblebee
  bee oral toxicity (% survival): far lower toxicity
Myzus persicae aphids
  activity against Myzus persicae (mortality): good activity
Myzus persicae
  efficacy in field trials against Myzus persicae: good efficacy
Aphis gossypii
  efficacy in field trials against Aphis gossypii: good efficacy
Aphis fabae
  efficacy in field trials against Aphis fabae: good efficacy
